From the supplement of paper PMC12137928 come the findings set out here.

This assay concerns HCT116. The conditions noted are these: 72 h. Summed up: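 Each well of the 1536-well plates received 250 HCT116 cells, which attached over 5 h. Luminescence was measured with CellTiter-Glo, scaled with vehicle as 0% and positive control as -100%, and pattern-corrected. A four-parameter Hill fit yielded IC50 and maximal efficacy.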

Where a name gives a salt, the structure may show the parent alone.

Consider `Cc1ccc(/C=C2/C(=O)C3(C)CCC2C3(C)C)cc1` (centres undefined) [ENZACAMENE], for which the IC50 cell viability runs as follows: (ICRF193 0 nM) above 45.8 µM; (ICRF193 200 nM) above 45.8 µM.
As to `CCCCN(CCN(CCCC)C(=O)N1CCOCC1)C(=O)N1CCOCC1` [Dimorpholamine], the IC50 cell viability is above 45.8 µM (ICRF193 0 nM) and above 45.8 µM (ICRF193 200 nM).
Compound `c1ccc2sc(SNC3CCCCC3)nc2c1` [N-Cyclohexyl-2-benzothiazolesulfenamide] returned an IC50 cell viability (ICRF193 0 nM) above 45.8 µM and an IC50 cell viability (ICRF193 200 nM) above 45.8 µM.
Consider `CC(=O)O[C@]1(C(C)=O)CC[C@H]2[C@@H]3C[C@H](C)C4=CC(=O)C=C[C@]4(C)[C@@]3(F)[C@@H](O)C[C@@]21C` [Fluorometholone Acetate], for which the IC50 cell viability reads like this: (ICRF193 0 nM) above 45.8 µM; (ICRF193 200 nM) above 45.8 µM.
`CSCC[C@H](N)C(=O)O` [L-Methionine]: the IC50 cell viability (ICRF193 0 nM) was above 45.8 µM and the IC50 cell viability (ICRF193 200 nM) is above 45.8 µM.
For `COP(=O)(OC)C(O)C(Cl)(Cl)Cl` (centres undefined) [Trichlorfon], the IC50 cell viability (ICRF193 0 nM) was above 45.8 µM and the IC50 cell viability (ICRF193 200 nM) was above 45.8 µM.
`Cc1ccc(=O)n(-c2ccccc2)c1` [Pirfenidone] gave an IC50 cell viability (ICRF193 0 nM) above 45.8 µM and an IC50 cell viability (ICRF193 200 nM) above 45.8 µM.
Take `CC(C)(C)NCC(O)COc1ccccc1OCC1CCCO1` (centres undefined) [Bufetolol]: the IC50 cell viability runs as follows: (ICRF193 0 nM) above 45.8 µM; (ICRF193 200 nM) above 45.8 µM.
`CO[C@@]1(NC(=O)C2SC(=C(C(N)=O)C(=O)O)S2)C(=O)N2C(C(=O)O)=C(CSc3nnnn3C)CS[C@@H]21` (some centres undefined) [CEFOTETAN]: the IC50 cell viability is above 45.8 µM (ICRF193 0 nM) and above 45.8 µM (ICRF193 200 nM).
Take `Oc1ncc(N(CCCl)CCCl)c(O)n1` [Uracil mustard]: the IC50 cell viability is above 45.8 µM (ICRF193 0 nM) and above 45.8 µM (ICRF193 200 nM).
For `COc1cc(NS(=O)(=O)c2ccc(N)cc2)nc(C)n1` [Sulfamethomidine], the IC50 cell viability is, setting by setting: (ICRF193 0 nM) above 45.8 µM; (ICRF193 200 nM) above 45.8 µM.
In the case of `CN1CCN(c2c(F)cc3c(=O)c(C(=O)O)cn4c3c2OCN4C)CC1` [Marbofloxacin], the IC50 cell viability (ICRF193 0 nM) is above 45.8 µM and the IC50 cell viability (ICRF193 200 nM) was above 45.8 µM.
For the compound `CC(=O)OC(C)C[N+](C)(C)C` (centres undefined) [Methacholine chloride], the IC50 cell viability by setting is: (ICRF193 0 nM) above 45.8 µM; (ICRF193 200 nM) above 45.8 µM.
With `C=CCN1CCc2nc(N)sc2CC1` [Talipexole], the IC50 cell viability is above 45.8 µM (ICRF193 0 nM) and above 45.8 µM (ICRF193 200 nM).
`N[C@@H](Cc1ccc(O)c(O)c1)C(=O)O` [Levodopa]: the IC50 cell viability is above 45.8 µM (ICRF193 0 nM) and above 45.8 µM (ICRF193 200 nM).
On to `CC(=O)OCC(=O)[C@@]1(O)CC[C@H]2[C@@H]3CCC4=CC(=O)CC[C@]4(C)[C@H]3C(=O)C[C@@]21C` [Cortisone acetate], for which the IC50 cell viability (ICRF193 0 nM) was above 45.8 µM and the IC50 cell viability (ICRF193 200 nM) was above 45.8 µM.
Take `C/C(=N\O)C(C)NCC(C)(C)CNC(C)/C(C)=N/O` (centres undefined) [Exametazime]: the IC50 cell viability is above 45.8 µM (ICRF193 0 nM) and above 45.8 µM (ICRF193 200 nM).
With `C=C1CC[C@@]2(O)[C@H]3Cc4ccc(O)c5c4[C@@]2(CCN3CC2CC2)[C@H]1O5` [Nalmefene], the IC50 cell viability is, setting by setting: (ICRF193 0 nM) above 45.8 µM; (ICRF193 200 nM) above 45.8 µM.
`CC1(C)S[C@@H]2[C@H](NC(=O)[C@H](N)c3ccc(O)cc3)C(=O)N2[C@H]1C(=O)O` [Amoxicillin sodium] yielded an IC50 cell viability (ICRF193 0 nM) above 45.8 µM and an IC50 cell viability (ICRF193 200 nM) above 45.8 µM.
Turning to `Cc1cc2nc3c(=O)[nH]c(=O)nc-3n(C[C@H](O)[C@H](O)[C@H](O)COP(=O)(O)OP(=O)(O)OC[C@H]3O[C@@H](n4cnc5c(N)ncnc54)[C@H](O)[C@@H]3O)c2cc1C` [Flavin adenine dinucleotide disodium salt hydrate], the IC50 cell viability (ICRF193 0 nM) is above 45.8 µM and the IC50 cell viability (ICRF193 200 nM) was above 45.8 µM.
As to `Cc1nn(C)c2c1C(c1ccccc1F)=NCC(=O)N2C` [Zolazepam Hydrochloride], the IC50 cell viability (ICRF193 0 nM) was above 45.8 µM and the IC50 cell viability (ICRF193 200 nM) is above 45.8 µM.
Turning to `O=[N+]([O-])c1nccn1COC(CO)C(O)CO` (centres undefined) [Doranidazole], the IC50 cell viability is above 45.8 µM (ICRF193 0 nM) and above 45.8 µM (ICRF193 200 nM).
Consider `CN[C@@H]1[C@H](O[C@H]2[C@H](O[C@H]3[C@H](O)[C@@H](O)[C@H](NC(=N)N)[C@@H](O)[C@@H]3NC(=N)N)O[C@@H](C)[C@]2(O)CO)O[C@@H](CO)[C@H](O)[C@H]1O` [DIHYDROSTREPTOMYCIN [5mM]], for which the IC50 cell viability is, setting by setting: (ICRF193 0 nM) above 45.8 µM; (ICRF193 200 nM) above 45.8 µM.
Regarding `COc1cc(C(=O)NC2CCCNC2)cc(OC)c1OC` (centres undefined) [Troxipide], the IC50 cell viability is, setting by setting: (ICRF193 0 nM) above 45.8 µM; (ICRF193 200 nM) above 45.8 µM.
In the case of `C#C[C@]1(O)CC[C@H]2[C@@H]3CCC4=CC(=O)CC[C@@H]4[C@H]3C(=C)C[C@@]21CC` [Etonogestrel], the IC50 cell viability was above 45.8 µM (ICRF193 0 nM) and above 45.8 µM (ICRF193 200 nM).
For `O=[N+]([O-])c1ccc([As](=O)(O)O)cc1` [Nitarsone], the IC50 cell viability runs as follows: (ICRF193 0 nM) above 45.8 µM; (ICRF193 200 nM) above 45.8 µM.
Consider `COc1ccc(C(=O)Nc2ccccc2CCC2CCCCN2C)cc1` (centres undefined) [Encainide hydrochloride], for which the IC50 cell viability is, setting by setting: (ICRF193 0 nM) above 45.8 µM; (ICRF193 200 nM) above 45.8 µM.
Consider `O=C(CCCN1CCC(n2c(=O)[nH]c3ccccc32)CC1)c1ccc(F)cc1` [Benperidol], for which the IC50 cell viability is above 45.8 µM (ICRF193 0 nM) and above 45.8 µM (ICRF193 200 nM).
For `CCCCCOc1ccc(-c2cc(-c3ccc(C(=O)N[C@H]4C[C@@H](O)[C@@H](O)NC(=O)[C@@H]5[C@@H](O)[C@@H](C)CN5C(=O)[C@H]([C@H](O)CC(N)=O)NC(=O)[C@H]([C@H](O)[C@@H](O)c5ccc(O)c(OS(=O)(=O)O)c5)NC(=O)[C@@H]5C[C@@H](O)CN5C(=O)[C@H]([C@@H](C)O)NC4=O)cc3)no2)cc1` [Micafunginsodium], the IC50 cell viability reads like this: (ICRF193 0 nM) above 45.8 µM; (ICRF193 200 nM) above 45.8 µM.
On to `Cl.Cl.c1ccc(CNCCNCc2ccccc2)cc1` [N,N'-Dibenzylethane-1,2-diamine dihydrochloride], for which the IC50 cell viability was above 45.8 µM (ICRF193 0 nM) and above 45.8 µM (ICRF193 200 nM).
As for `CC(=O)Oc1cccc(O)c1` [Resorcinol monoacetate], the IC50 cell viability was above 45.8 µM (ICRF193 0 nM) and above 45.8 µM (ICRF193 200 nM).
As to `CC/C(=C(/CC)c1ccc(OP(=O)(O)O)cc1)c1ccc(OP(=O)(O)O)cc1` [Fosfestrol tetrasodium], the IC50 cell viability runs as follows: (ICRF193 0 nM) above 45.8 µM; (ICRF193 200 nM) above 45.8 µM.
Turning to `C#C[C@]1(OC(C)=O)CC[C@H]2[C@@H]3CCC4=CC(=O)CC[C@@H]4[C@H]3CC[C@@]21C` [NORETHINDRONE ACETATE], the IC50 cell viability was above 45.8 µM (ICRF193 0 nM) and above 45.8 µM (ICRF193 200 nM).
Take `C[C@]12CC[C@H]3[C@@H](CCC4=C(O)C(=O)CC[C@@H]43)[C@@H]1CC[C@@H]2OC(=O)CCC1CCCC1` [Oxabolone cipioncate]: the IC50 cell viability (ICRF193 0 nM) is above 45.8 µM and the IC50 cell viability (ICRF193 200 nM) was above 45.8 µM.
The compound `CCCN1C[C@H](CSC)C[C@@H]2c3cccc4[nH]cc(c34)C[C@H]21` [Pergolide methanesulfonate] yielded an IC50 cell viability (ICRF193 0 nM) above 45.8 µM and an IC50 cell viability (ICRF193 200 nM) above 45.8 µM.
Regarding `CNS(=O)(=O)Cc1ccc2[nH]cc(CCN(C)C)c2c1` [Sumatriptan], the IC50 cell viability was above 45.8 µM (ICRF193 0 nM) and above 45.8 µM (ICRF193 200 nM).
As to `CCCN1CC(NS(=O)(=O)N(CC)CC)CC2Cc3c(O)cccc3CC21` (centres undefined) [Quinagolide (hydrochloride)], the IC50 cell viability by setting is: (ICRF193 0 nM) above 45.8 µM; (ICRF193 200 nM) above 45.8 µM.
